ChEMBL document CHEMBL4828772, “Imidazo[1,2-b]pyridazines as IL-17A Inhibitors for Treating Psoriasis, Rheumatoid Arthritis, and Multiple Sclerosis” (ACS Med Chem Lett, 2021)

Experiment: Inhibition of C-terminal Avi/His-tagged IL-17A (1 to 155 residues) (unknown origin) expressed in baculovirus infected insect cells binding with FLAG-tagged/Thrombin cleavage site fused IL-17RA (1 to317 residues) N206D/N256D mutant (unknown origin) expressed in baculovirus infected insect cells measured after 2 hrs by AlphaLISA method
Parameters: species or system Homo sapiens

SMILES | IC50
COC[C@H](c1cnn2cc([C@@H](NC(=O)c3nonc3C(F)F)C3CCC(F)(F)CC3)nc2c1)N1C[C@@H](C(F)(F)F)NC1=O | < 9.45 nM
COC[C@H](c1cnn2cc([C@@H](NC(=O)c3nonc3C(F)(F)F)C3CCC(F)(F)CC3)nc2c1)N1C[C@@H](C(F)(F)F)NC1=O | < 9.45 nM
CC(C)c1nonc1C(=O)N[C@H](c1cn2ncc(CN3C[C@@H](C(F)(F)F)NC3=O)cc2n1)C1CCC(F)(F)CC1 | < 9.45 nM
O=C(N[C@H](c1cn2ncc(CN3C[C@@H](C(F)(F)F)NC3=O)cc2n1)C1CCC(F)(F)CC1)c1nonc1C(F)(F)F | < 9.45 nM
COC[C@H](c1cnn2cc([C@@H](NC(=O)c3conc3C3CC3)C3CCC(F)(F)CC3)nc2c1)N1C[C@@H](C(F)(F)F)NC1=O | < 9.45 nM
O=C(N[C@H](c1cn2ncc(CN3C[C@@H](C(F)(F)F)NC3=O)cc2n1)C1CCC(F)(F)CC1)c1nonc1C1CC1 | < 9.45 nM
